Reference: US20220225159A1, “PARENTERAL DELIVERY OF AVIZAFONE” (Sollievo Pharmaceuticals, Inc, priority 2020, published 2022)

Tests used:
[1] = test system: beagle dogs; assay: Time to onset of sedation after IM administration of AVF in a canine model; type: in vivo
[2] = Diazepam plasma PK after single-dose SQ administration of AVF to dogs (Example 1); conditions: mean; single-dose SQ approx. 1.9 mg/kg avizafone; NCA
[3] = Diazepam plasma PK after single-dose IM administration of AVF to dogs, Study 1 (Example 1)
[4] = Diazepam plasma PK after single-dose IM administration of more concentrated AVF to dogs, Study 2 (Example 2); conditions: for AUClast/D (diazepam) / Cmax/D (diazepam): N=6, 0.0952 mol/L AVF, NCA
[5] = geometric mean, N=6, Study 1, IM, NCA
[6] = mean, N=6, Study 1, IM, NCA, Table 5
[7] = pooled without and with niacin, IM vs SQ

Substance: Avizafone
- median time for onset of sedation ([1]; Study 1, IM, less concentrated AVF formulations (mean 0.0300 mol/L)): greater than 45 minutes
- median time for onset of sedation ([1]; Study 2, IM, more concentrated formulation (0.0952 mol/L)): approximately 10 minutes
- Cmax/D (diazepam) [2]: 264 (ng/mL)/(mg/kg)
- V/F (diazepam) [2]: 2.432 L/kg
- mean K01 (input rate constant) for DZP ([3]; Study 1, IM, compartment modeling): 0.2289 min⁻¹
- AUClast/D (diazepam) [3, 5]: 22243 (min*ng/mL)/(mg/kg)
- Cmax/D (diazepam) [3, 5]: 650 (ng/mL)/(mg/kg)
- AUClast/D (diazepam) [3, 6]: 22637 (min*ng/mL)/(mg/kg)
- Cmax/D (diazepam) [3, 6]: 702 (ng/mL)/(mg/kg)
- V/F (diazepam) ([3]; mean, single-dose IM approx. 1.6 to 1.8 mg/kg avizafone, NCA): 1.435 L/kg
- Cmax/D (diazepam) ([3]; mean, single-dose IM approx. 1.6 to 1.8 mg/kg avizafone, NCA, Table 2): 397 (ng/mL)/(mg/kg)
- AUClast/D (diazepam) ([3]; median, N=6, Study 1, IM, NCA): 22225 (min*ng/mL)/(mg/kg)
- Cmax/D (diazepam) ([3]; median, N=6, Study 1, IM, NCA): 574 (ng/mL)/(mg/kg)
- DZP AUClast/D higher following IM than following SQ administration [3, 7]: 1.43 fold
- DZP Cmax/D higher following IM than following SQ administration [3, 7]: 1.50 fold
- shorter Tmax in Study 2 than in Study 1 ([4]; 3-fold higher injection solution concentration, 3-fold smaller injection volume, IM): 3 fold
- mean K01 higher in Study 2 compared to Study 1 ([4]; IM, Study 2 vs Study 1, compartment modeling): 4.2 fold
- mean K01 (input rate constant) for DZP ([4]; Study 2, IM, compartment modeling): 0.9501 min⁻¹
- AUClast/D (diazepam) ([4]; geometric mean, Study 2, IM): 22101 (min*ng/mL)/(mg/kg)
- Cmax/D (diazepam) ([4]; geometric mean, Study 2, IM): 644 (ng/mL)/(mg/kg)
- AUClast/D (diazepam) ([4]; mean, Study 2, IM): 22176 (min*ng/mL)/(mg/kg)
- Cmax/D (diazepam) ([4]; mean, Study 2, IM): 656 (ng/mL)/(mg/kg)
- AUClast/D (diazepam) ([4]; median, Study 2, IM): 21903 (min*ng/mL)/(mg/kg)
- Cmax/D (diazepam) ([4]; median, Study 2, IM): 605 (ng/mL)/(mg/kg)
